Literature values in paper PMC8433641, “A Stability-Indicating Ultra Performance Liquid Chromato-Graphic (UPLC) Method for the Determination of a Mycophenolic Acid-Curcumin Conjugate and Its Applications to Chemical Kinetic Studies” (Molecules, 2021).

Parameters: method as in PMID 29678124
Conditions: pH 7.4

curcumin
t1/2: 33.6 min
